Experiments:
HCC70 xenograft = test: Tumour growth inhibition, HCC70 xenograft model; type: in vivo, mouse; details: Example 3 alone 25 mg/kg BID every day; FIG. 13
Description: HCC70 is breast tumour cell line which is deficient in PTEN gene expression. Female Swiss athymic nude mice (swiss nu/nu—AZUK) were transplanted subcutaneously with the breast ductal epithelial tumour cell line HCC70 (ATCC—CRL2315) cells. 1×10^6 cells in 50% matrigel (BD Bioscience) were injected s.c. on the left flank of the animals.
Animals were randomised into groups of 10-15 when tumours reached a volume of ˜200-300 mm^3 and treatment commenced. Animals were dosed for 3-4 weeks by peroral route, with compound in a suitable vehicle at defined doses and schedules. Tumours were measured two-three times weekly by caliper and volume of tumours calculated using elliptical formula (pi/6×width×width×length).

MV411 = test: Cell proliferation assay (MTS); type: cell-based, human
Description: (§1) The sensitivity of a panel of human cancer cell lines to the effects of compounds was determined in a standard proliferation assay.
(§2) Cells were plated in 96 well plates at densities of 1000-6000 cells per well in RPMI media containing 10% FBS. After incubation at 37° C. for 16 hours, various concentrations of compound were added to the assay plates. After incubation for an additional 72 h, the viable cells were determined by the addition of MTS reagent (Promega #3582) to each well for 2 h. MTS is a tetrazolium salt that is bioreduced by metabolically active cells in the presence of an electron coupling reagent to formazan. The formazan product was then quantitated by absorbance at 490 nm, as an indicator of the relative number of live cells. In order to determine the GI50 (concentration at which growth of cells was inhibited by 50%) the relative number of cells present at the time of drug addition was determined by comparison with the MTS readout before the drug was added, and this value was subtracted from the 72 hr value of untreated cells as a measure of cell growth during the assay.

SW48 = test: Cell proliferation assay (MTS); type: cell-based, human
Description: (§3) The sensitivity of a panel of human cancer cell lines to the effects of compounds was determined in a standard proliferation assay. Cell lines were sourced through the AstraZeneca Cell Bank.
as §2

VMCUB1 = test: Cell proliferation assay (MTS); type: cell-based, human
Description: as §1, §2

RERFLCSQ1 = test: Cell proliferation assay (MTS); type: cell-based, human
Description: as §1, §2

CCK81 = test: Cell proliferation assay (MTS); type: cell-based, human
Description: as §1, §2

SNU216 = test: Cell proliferation assay (MTS); type: cell-based, human
Description: as §1
(§4) Cells were plated in 96 well plates at densities of 1000-6000 cells per well in RPMI media containing 10% FBS. After incubation at 37° C. for 16 hours, various concentrations of compound were added to the assay plates. After incubation for an additional 72 h, the viable cells were determined by the addition of MTS reagent (Promega #3582) to each well for 2 h. […] The formazan product was then quantitated by absorbance at 490 nm, as an indicator of the relative number of live cells. In order to determine the GI50 (concentration at which growth of cells was inhibited by 50%) the relative number of cells present at the time of drug addition was determined by comparison with the MTS readout before the drug was added, and this value was subtracted from the 72 hr value of untreated cells as a measure of cell growth during the assay.

SUM52PE = test: Cell proliferation assay (MTS); type: cell-based, human
Description: as §1, §2

C99 = test: Cell proliferation assay (MTS); type: cell-based, human
Description: as §1, §2

HCC1569 = test: Cell proliferation assay (MTS); type: cell-based, human
Description: as §3, §4

JIMT1 = test: Cell proliferation assay (MTS); type: cell-based, human
Description: as §1, §2

SKBR3 = test: Cell proliferation assay (MTS); type: cell-based, human
Description: as §1, §2

HPAC = test: Cell proliferation assay (MTS); type: cell-based, human
Description: as §1, §2

H1975 = test: Cell proliferation assay (MTS); type: cell-based, human
Description: as §3, §2

HT1197 = test: Cell proliferation assay (MTS); type: cell-based, human
Description: as §1, §2

MOLM16 = test: Cell proliferation assay (MTS); type: cell-based, human
Description: as §1, §2

PANC1 = test: Cell proliferation assay (MTS); type: cell-based, human
Description: as §1, §4

PANC0403 = test: Cell proliferation assay (MTS); type: cell-based, human
Description: as §1, §2

HT1376 = test: Cell proliferation assay (MTS); type: cell-based, human
Description: as §3, §2

JURKAT = test: Cell proliferation assay (MTS); type: cell-based, human
Description: as §1, §4

5637 = test: Cell proliferation assay (MTS); type: cell-based, human
Description: as §1, §2

OE33 = test: Cell proliferation assay (MTS); type: cell-based, human
Description: as §1, §4

LS180 = test: Cell proliferation assay (MTS); type: cell-based, human
Description: as §1, §4

H647 = test: Cell proliferation assay (MTS); type: cell-based, human
Description: as §1, §2

SW620 = test: Cell proliferation assay (MTS); type: cell-based, human
Description: as §1, §4

KP4 = test: Cell proliferation assay (MTS); type: cell-based, human
Description: as §3, §2

HCC1806 = test: Cell proliferation assay (MTS); type: cell-based, human
Description: as §1, §2

NAMALWA = test: Cell proliferation assay (MTS); type: cell-based, human
Description: as §1, §4

H460DNP53 = test: Cell proliferation assay (MTS); type: cell-based, human
Description: as §1, §2

SW780 = test: Cell proliferation assay (MTS); type: cell-based, human
Description: as §1, §2

NUGC3 = test: Cell proliferation assay (MTS); type: cell-based, human
Description: as §3, §2

ARH77 = test: Cell proliferation assay (MTS); type: cell-based, human
Description: as §1, §2

HCT116 = test: Cell proliferation assay (MTS); type: cell-based, human
Description: as §1, §2

IM9 = test: Cell proliferation assay (MTS); type: cell-based, human
Description: as §3, §2

MDAMB157 = test: Cell proliferation assay (MTS); type: cell-based, human
Description: as §1, §2

MKN74 = test: Cell proliferation assay (MTS); type: cell-based, human
Description: as §1, §2

PC9 = test: Cell proliferation assay (MTS); type: cell-based, human
Description: as §1, §2

RAJI = test: Cell proliferation assay (MTS); type: cell-based, human
Description: as §1, §2

T24 = test: Cell proliferation assay (MTS); type: cell-based, human
Description: as §3, §2

[1] = Homo sapiens, Colon, PIK3CA MUT
[2] = Homo sapiens, Breast, PIK3CA WT
[3] = Homo sapiens, Blood/lymph, PIK3CA WT
[4] = Homo sapiens, Bladder, PIK3CA WT

Structure (SMILES): CCn1nc(C2CCN(C(=O)CCO)CC2)nc1-c1cnc(N)c(-c2nnc(C(C)(C)C)o2)n1 [Example 3, 1-(4-(5-(5-amino-6-(5-tert-butyl-1,3,4-oxadiazol-2-yl)pyrazin-2-yl)-1-ethyl-1H-1,2,4-triazol-3-yl)piperidin-1-yl)-3-hydroxypropan-1-one]
- tumour growth (HCC70 xenograft): inhibited growth more strongly
- Category (MV411): Sensitive (sensitive (GI50<=1.0 μM))
- GI50 (MV411; Homo sapiens, MV4-11, Blood/lymph, PIK3CA WT): 0.382 µM
- Category (SW48): Sensitive (sensitive (GI50<=1.0 μM))
- GI50 (SW48; [1]): 0.513 µM
- Category (VMCUB1): Sensitive (sensitive (GI50<=1.0 μM))
- GI50 (VMCUB1; Homo sapiens, VM-CUB-1, Bladder, PIK3CA MUT): 0.732 µM
- GI50 (RERFLCSQ1; Homo sapiens, RERF-LC-Sq1, Lung, PIK3CA MUT): 0.771 µM
- Category (RERFLCSQ1; RERFLCSQ1): Sensitive (sensitive (GI50<=1.0 μM))
- Category (CCK81): Sensitive (sensitive (GI50<=1.0 μM))
- GI50 (CCK81; [1]): 0.803 µM
- Category (SNU216): Resistant (resistant (GI50>1.0 μM))
- GI50 (SNU216; Homo sapiens, SNU-216, Stomach, PIK3CA WT): 1.07 µM
- Category (SUM52PE): Resistant (resistant (GI50>1.0 μM))
- GI50 (SUM52PE; [2]): 1.15 µM
- Category (C99): Resistant (resistant (GI50>1.0 μM))
- GI50 (C99; Homo sapiens, Colon, PIK3CA WT): 1.22 µM
- Category (HCC1569): Resistant (resistant (GI50>1.0 μM))
- GI50 (HCC1569; [2]): 1.37 µM
- Category (JIMT1): Resistant (resistant (GI50>1.0 μM))
- GI50 (JIMT1; Homo sapiens, JIMT-1, Breast, PIK3CA MUT): 1.46 µM
- Category (SKBR3): Resistant (resistant (GI50>1.0 μM))
- GI50 (SKBR3; Homo sapiens, SK-BR-3, Breast, PIK3CA WT): 1.59 µM
- Category (HPAC): Resistant (resistant (GI50>1.0 μM))
- GI50 (HPAC; Homo sapiens, Pancreas, PIK3CA WT): 2.16 µM
- Category (H1975): Resistant (resistant (GI50>1.0 μM))
- GI50 (H1975; Homo sapiens, NCI-H1975, Lung, PIK3CA MUT): 2.26 µM
- Category (HT1197): Resistant (resistant (GI50>1.0 μM))
- GI50 (HT1197; Homo sapiens, Bladder, PIK3CA MUT): 2.8 µM
- Category (MOLM16): Resistant (resistant (GI50>1.0 μM))
- GI50 (MOLM16; [3]): 4.6 µM
- Category (PANC1): Resistant (resistant (GI50>1.0 μM))
- GI50 (PANC1; Homo sapiens, PANC-1, Pancreas, PIK3CA WT): 5.34 µM
- Category (PANC0403): Resistant (resistant (GI50>1.0 μM))
- GI50 (PANC0403; Homo sapiens, Panc 04.03, Pancreas, PIK3CA WT): 6.47 µM
- Category (HT1376): Resistant (resistant (GI50>1.0 μM))
- GI50 (HT1376; Homo sapiens, HT-1376, Bladder, PIK3CA WT): 8.2 µM
- Category (JURKAT): Resistant (resistant (GI50>1.0 μM))
- GI50 (JURKAT; [3]): 8.69 µM
- Category 5637: Resistant (resistant (GI50>1.0 μM))
- GI50 5637; [4]: 9.63 µM
- Category (OE33): Resistant (resistant (GI50>1.0 μM))
- GI50 (OE33; Homo sapiens, Esophagus, PIK3CA WT): 9.86 µM
- Category (LS180): Resistant (resistant (GI50>1.0 μM))
- GI50 (LS180; [1]): 9.94 µM
- Category (H647): Resistant (resistant (GI50>1.0 μM))
- GI50 (H647; Homo sapiens, NCI-H647, Lung, PIK3CA WT): 11.3 µM
- Category (SW620): Resistant (resistant (GI50>1.0 μM))
- GI50 (SW620; Homo sapiens, SW-620, Colon, PIK3CA WT): 13.4 µM
- Category (KP4): Resistant (resistant (GI50>1.0 μM))
- GI50 (KP4; Homo sapiens, KP-4, Pancreas, PIK3CA WT): 15.1 µM
- Category (HCC1806): Resistant (resistant (GI50>1.0 μM))
- GI50 (HCC1806; [2]): 16.7 µM
- Category (NAMALWA): Resistant (resistant (GI50>1.0 μM))
- GI50 (NAMALWA; [3]): 17.6 µM
- Category (H460DNP53): Resistant (resistant (GI50>1.0 μM))
- GI50 (H460DNP53; Homo sapiens, Lung, PIK3CA WT): 18 µM
- Category (SW780): Resistant (resistant (GI50>1.0 μM))
- GI50 (SW780; [4]): 19.2 µM
- Category (NUGC3): Resistant (resistant (GI50>1.0 μM))
- GI50 (NUGC3; Homo sapiens, NUGC-3, Stomach, PIK3CA WT): 24.2 µM
- Category (ARH77): Resistant (resistant (GI50>1.0 μM))
- GI50 (ARH77; Homo sapiens, ARH-77, Blood/lymph, PIK3CA WT): 30 µM
- Category (HCT116): Resistant (resistant (GI50>1.0 μM))
- GI50 (HCT116; Homo sapiens, HCT-116, Colon, PIK3CA MUT): 30 µM
- Category (IM9): Resistant (resistant (GI50>1.0 μM))
- GI50 (IM9; Homo sapiens, IM-9, Blood/lymph, PIK3CA WT): 30 µM
- Category (MDAMB157): Resistant (resistant (GI50>1.0 μM))
- GI50 (MDAMB157; Homo sapiens, MDA-MB-157, Breast, PIK3CA WT): 30 µM
- Category (MKN74): Resistant (resistant (GI50>1.0 μM))
- GI50 (MKN74; Homo sapiens, MKN-74, Stomach, PIK3CA WT): 30 µM
- Category (PC9): Resistant (resistant (GI50>1.0 μM))
- GI50 (PC9; Homo sapiens, PC-9, Lung, PIK3CA WT): 30 µM
- Category (RAJI): Resistant (resistant (GI50>1.0 μM))
- GI50 (RAJI; [3]): 30 µM
- Category (T24): Resistant (resistant (GI50>1.0 μM))
- GI50 (T24; Homo sapiens, T-24, Bladder, PIK3CA WT): 30 µM

From patent publication US9156831B2, “Chemical compounds” (ASTRAZENECA AB, priority 2013, dated 2015)
